Key:
[1] = target: T1, ARNT PAS-B (aryl hydrocarbon receptor nuclear translocator) (Homo sapiens, UniProt P27540, Y456T); experiment: […]/1H HSQC NMR titration ([…]/1H HSQC titration also gave Kd […]); format: binding
T1 construct: PAS-B domain, residues 356–470 (with N-terminal GAMD cloning artifact)

[2] = target: T1, ARNT PAS-B (aryl hydrocarbon receptor nuclear translocator); experiment: […]/1H HSQC NMR titration (L391 δ[…] methyl); format: binding

T1 sequence (P27540 356-470 Y456T): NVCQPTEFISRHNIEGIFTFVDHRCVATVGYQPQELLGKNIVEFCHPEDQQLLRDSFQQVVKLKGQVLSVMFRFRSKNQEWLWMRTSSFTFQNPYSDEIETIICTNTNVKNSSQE

Row | Structure (SMILES) | Kd [1] [µM] | Kd [2] [µM]
1 | FC(F)(F)c1cc(-c2nn[nH]n2)cc(C(F)(F)F)c1 [KG-548, 5-(3,5-bis(trifluoromethyl)phenyl)tetrazole] | 684 ± 33.1 | 
2 | Oc1cc(C(F)(F)F)cc(C(F)(F)F)c1 [KG-655, 3,5-bis(trifluoromethyl)phenol] |  | 1950 ± 152

— PMC9119131, “Fragile protein folds: sequence and environmental factors affecting the equilibrium of two interconverting, stably folded protein conformations” (Magnetic resonance, 2021)
